Reference: patent US4804502A, “Vitamin D compounds” (priority 1988, dated 1989)
Like-named read-outs stand apart in the source and are kept apart here.

What was measured:
[1] = test system: bone calcium mobilization; assay: Bone Calcium Mobilization in Rat (plasma Ca increase); type: in vivo; conditions: 12.5 ng/rat, intrajugular, 18 h
Procedure: Controls received carrier alone. Bone Ca resorption (BCR) was estimated by measuring the blood Ca increase in the treated rats. Blood was collected in heparinized tubes and centrifuged. The resulting plasma was measured for calcium concentration by atomic absorption spectroscopy. Since rats were fed a diet essentially devoid of Ca, plasma Ca increases reflected mobilization of Ca from bone, not intestinal Ca absorption.

[2] = target: T1, 1,25-(OH)2 D3 receptors (chick intestine) (Gallus gallus, UniProt O42392); assay: Competitive Binding to 1,25-(OH)2 D3 Intestine Receptors, chick; conditions: a/b×100 from amounts displacing 50% of 1,25-(OH)2[3H]D3
T1 construct: receptor prepared from intestine of chick, rat and calf; from tissue; host or cells: chick proximal small-intestine mucosa, cytosol, 35% ammonium sulphate precipitate
T1 sequence (O42392 1-451): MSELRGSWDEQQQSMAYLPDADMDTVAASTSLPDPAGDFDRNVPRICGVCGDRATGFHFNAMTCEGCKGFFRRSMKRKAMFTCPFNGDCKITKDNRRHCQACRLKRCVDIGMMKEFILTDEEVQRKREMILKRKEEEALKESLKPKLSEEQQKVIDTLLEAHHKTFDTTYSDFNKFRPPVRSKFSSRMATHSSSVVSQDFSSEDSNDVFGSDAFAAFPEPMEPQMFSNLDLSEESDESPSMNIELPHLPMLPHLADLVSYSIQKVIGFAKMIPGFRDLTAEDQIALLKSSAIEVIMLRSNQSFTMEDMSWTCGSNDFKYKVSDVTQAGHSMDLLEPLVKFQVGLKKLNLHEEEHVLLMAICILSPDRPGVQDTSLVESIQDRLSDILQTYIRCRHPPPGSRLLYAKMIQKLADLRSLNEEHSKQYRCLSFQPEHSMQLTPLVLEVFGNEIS
Procedure: (§1) The ability of vitamin D3 metabolites to compete for 1,25-(OH)[^3 H]D3 receptor binding sites was evaluated with receptor prepared from intestine of chick, rat and calf. […] Mucosa was collected and washed three times with 10 volumes of cold KTED buffer. The washed mucosa was homogenized in KTED buffer (20% w/v) using a Polytron Pt20 tissue disruptor. Cytosol was prepared by centrifugation of the homogenized mucosa at 300,000×g for 1 hour. […] The ammonium sulphate treated cytosol was centrifuged at 20,000×g for 10 minutes. The supernatant was discarded and the pellet lyophilized and stored at […] Prior to binding assay the pellet was resuspended in cold binding assay buffer containing 150 mM KCl, 50 mM NaPO4, 1.5 mM EDTA and 5 mM dithiothreitol.

[3] = test system: HL-60 promyelocytic leukemia cells; assay: Induction of differentiation of HL-60 cells (NBT reduction); type: cell-based, human; conditions: for EC50: Homo sapiens, HL-60, 192 h, read-out: ED50 (concentration which induced differentiation of 50% of the cells)
Procedure: (§2) Inhibition of Cell Proliferation and Induction of Cell Differentiation
(§3) Cultures of HL-60 promyelocytic leukemia cells were established in the absence (control) and presence of various concentrations of test compounds. After an 8-day incubation period, the cultures were evaluated for proliferation of tumor cells, cell viability, and cellular differentiation. Proliferation was assessed by directly enumerating the increased number of tumor cells resulting from cell division during incubation. Viability was assessed by dye exclusion technique to learn whether any of the compounds were lethal to the cultured HL-60 cells. Cellular differentiation was evaluated by determining the number of cells which had acquired the enzymes necessary to support a respiratory burst, a characteristic of mature macrophages and granulocytes.
(§4) Tissue culture medium used in these experiments was RPMI-1640 supplemented to 10% v/v with heat-inactivated fetal bovine serum and to an additional 1.6 mM with L-glutamine.
(§5) Test compounds were dissolved in sufficient ethanol to yield stock solutions of 1×10^-2 or 1×10^-3 molar. Reduced lighting was used when working with compounds and stock solutions were stored in the dark at -20° C. in an argon atmosphere. Compounds were diluted in tissue culture medium and added to flasks containing HL-60 cells to achieve the final concentration described in each test.
(§6) The HL-60 tumor cell line was originally derived from a patient with promyelocytic leukemia and was obtained from the American Type Culture Collection. The cells were maintained in liquid culture by serial passage twice weekly in tissue culture medium. […] In any test, three replicate flasks were incubated without compound (control) or in the presence of varying concentrations of test compound. Ethanol, used as the vehicle, was kept constant in all dilutions in each test and had no effect on cell proliferation, viability or cell differentiation at the concentrations used (≤0.1%). After 8 days of incubation at 37° in a humidified atmosphere of 5% CO2 in air, cultures were evaluated for tumor cell proliferation, viability and differentiation.
Quantitation of differentiated cells was done by the biochemical method of nitroblue tetrazolum (NBT) reduction. One million HL-60 cells were pooled from replicate cultures, centrifuged at 220×g for 10 minutes, and resuspended in 1 ml of Ca^++ -Mg^++ -deficient phosphate buffered saline prepared by supplementing Ca^++ -Mg^++ -free phosphate buffered saline (PBS) to 20% v/v with heat-inactivated fetal bovine serum). Nitroblue tetrazolium was dissolved at 0.5 mg per ml in Ca^++ -Mg^++ -free PBS with gentle heating and frequent mixing. A stock solution of 1 mg tetradecanoyl phorbol acetate (TPA) per ml in ethanol, stored at -20°, was diluted 100-fold with Ca^++ -Mg^++ -free PBS to prepare a working solution. The test was done by adding 1 ml of NBT solution and 0.02 ml of the working TPA solution to the HL-60 cells. After mixing, the tubes were incubated in a 37° water bath for 25 minutes then transferred to ice. Undifferentiated and differentiated cells present in any sample were determined microscopically by surveying a minimum of 300 cells per sample. Cells without pigmented granules (clear cells) were judged to be undifferentiated while those containing greater than 3 blue-black formazan granules were scored as differentiated. Generally, differentiated cells were intensely pigmented clearly indicating the enzymatic conversion of NBT to formazan. Results are expressed as the percentage of differentiated cells present in any sample as calculated according to the formula: [formula] The results are also expressed as the concentration of compound which induced differentiation of 50% of the cells (ED50).

[4] = test system: HL-60 promyelocytic leukemia cells; assay: Inhibition of proliferation of HL-60 cells; type: cell-based; conditions: Homo sapiens, HL-60, 192 h; for IC50: read-out: ID50 (concentration which reduced the cell number by 50%)
Procedure: as §2, §3, §4, §5, §6
Quantitation of proliferation was done by enumerating the number of HL-60 cells in each individual flask (3 flasks per experimental point) using an Elzone electronic particle counter. Results are shown as the percent reduction of cell number calculated for each concentration tested according to the formula: [formula] The results are also expressed as the concentration which reduced the cell number by 50% (ID50).

[5] = target: T2, 1,25-(OH)2 D3 receptors (calf intestine) (Bos taurus, UniProt Q28037); assay: Competitive Binding to 1,25-(OH)2 D3 Intestine Receptors, calf; conditions: a/b×100 from amounts displacing 50% of 1,25-(OH)2[3H]D3
T2 construct: receptor prepared from intestine of chick, rat and calf; from tissue; host or cells: calf proximal small-intestine mucosa, cytosol, 35% ammonium sulphate precipitate
T2 sequence (Q28037 1-426): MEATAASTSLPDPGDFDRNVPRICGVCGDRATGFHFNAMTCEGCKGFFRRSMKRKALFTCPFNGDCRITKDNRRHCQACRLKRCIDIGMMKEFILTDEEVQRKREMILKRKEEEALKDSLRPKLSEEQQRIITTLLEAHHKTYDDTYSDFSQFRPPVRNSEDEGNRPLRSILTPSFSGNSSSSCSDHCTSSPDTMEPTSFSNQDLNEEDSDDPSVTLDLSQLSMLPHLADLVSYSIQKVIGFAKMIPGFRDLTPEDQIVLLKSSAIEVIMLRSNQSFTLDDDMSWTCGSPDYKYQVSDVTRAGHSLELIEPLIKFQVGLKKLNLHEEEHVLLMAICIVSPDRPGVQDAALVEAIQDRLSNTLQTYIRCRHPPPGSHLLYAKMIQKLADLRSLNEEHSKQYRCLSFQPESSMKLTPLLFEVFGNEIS
Procedure: as §1

[6] = test system: intestinal calcium absorption (duodenum); assay: Stimulation of Intestinal Calcium Absorption in Rat (intestinal 45Ca transport, everted gut sac); conditions: 12.5 ng/rat, intrajugular, 18 h
vitamin D deficient rats = conditions: 3 weeks
[7] = read-out: % Reduction in cell number
[8] = 8 days, from dose response curves

## C=C1CC[C@H](O)C/C1=C/C=C1\CCC[C@]2(C)[C@@H]([C@H](C)CC#CC(C)(C)O)CC[C@@H]12 [Compound C, 25-hydroxy-23-yne-cholecalciferol]
[1]
  % of 1,25-(OH)2 D3 Effect in Rat, bone calcium mobilization: 0%
[2]
  Competitive Binding to 1,25-(OH)2 D3 Receptors - % of 1,25-(OH)2 D3 Effect, chick intestine: 0%
[3]; 10 × 10^-8 M, 8 days
  % Differentiated cells: 5%
[3]; 100 × 10^-8 M, 8 days
  % Differentiated cells: 27%
[3]; 300 × 10^-8 M, 8 days
  % Differentiated cells: 95%
[3]
  EC50: 1.5 µM
[4]; [7]
  inhibition at 0.1 µM: 0%
  inhibition at 1 µM: 31%
  inhibition at 3 µM: 79%
[4]
  IC50: 1.5 µM
[5]
  Competitive Binding to 1,25-(OH)2 D3 Receptors - % of 1,25-(OH)2 D3 Effect, calf intestine: 0%
[6]
  % of 1,25-(OH)2 D3 Effect in Rat, intestinal calcium absorption: 71%

## C=C1CC[C@H](O)C/C1=C/C=C1\CCC[C@]2(C)[C@@H]([C@H](C)CC#CC(O)(C(F)(F)F)C(F)(F)F)CC[C@@H]12 [Compound D, 25-hydroxy-23-yne-26,26,26,27,27,27-hexafluorocholecalciferol]
[1]
  % of 1,25-(OH)2 D3 Effect in Rat, bone calcium mobilization: 11%
[2]
  Competitive Binding to 1,25-(OH)2 D3 Receptors - % of 1,25-(OH)2 D3 Effect, chick intestine: 0%
[3]; 1 × 10^-8 M, 8 days
  % Differentiated cells: 6%
[3]; 10 × 10^-8 M, 8 days
  % Differentiated cells: 27%
[3]; 100 × 10^-8 M, 8 days
  % Differentiated cells: 99%
[3]; [8]
  EC50: 0.2 µM
[4]; 1 × 10^-8 M, 8 days, read-out: % Reduction in cell number
  inhibition at 0.01 µM: 0%
[4]; 10 × 10^-8 M, 8 days, read-out: % Reduction in cell number
  inhibition at 0.1 µM: 14%
[4]; 100 × 10^-8 M, 8 days, read-out: % Reduction in cell number
  inhibition at 1 µM: 77%
[4]; [8]
  IC50: 0.25 µM
[5]
  Competitive Binding to 1,25-(OH)2 D3 Receptors - % of 1,25-(OH)2 D3 Effect, calf intestine: 0%
[6]
  % of 1,25-(OH)2 D3 Effect in Rat, intestinal calcium absorption: 0%

## C=C1/C(=C\C=C2/CCC[C@]3(C)[C@@H]([C@H](C)CCCC(C)(C)O)CC[C@@H]23)C[C@@H](O)C[C@@H]1O [1,25-(OH)2 D3, reference compound]
Vitamin D deficient rats; daily dose 15 ng
  Bone Mass: 156 ± 16 mm^3 /cm^3
  Serum Ca^2+: 11.76 ± 0.16 mg/dL
  Serum PO4^2-: 7.61 ± 0.31 mg/dL
Vitamin D deficient rats; daily dose 60 ng
  Bone Mass: 296 ± 56 mm^3 /cm^3
  Serum Ca^2+: 11.92 ± 0.40 mg/dL
  Serum PO4^2-: 6.58 ± 0.30 mg/dL
[1]
  % of 1,25-(OH)2 D3 Effect in Rat, bone calcium mobilization: 100%
[6]
  % of 1,25-(OH)2 D3 Effect in Rat, intestinal calcium absorption: 100%
